Entries after “also recorded” stand apart in the source; their conditions may differ. Values belong to the molecule of their own block, whether it stands above or below them.
Legend:
[1] = system: IL-1β evoked IL-8 release from HaCaT cells; assay: IL-1β evoked IL-8 release assay in HaCaT cells; type: cell-based, human; conditions: agonist mode, n = 3
Experimental: (§1) The immortalized human keratinocyte cell line HaCaT and mouse fibroblast NIH-3T3 cell line were maintained in culture in DMEM with 10% fetal bovine serum and 1% penicillin/streptomycin added (Sigma). Cells were seeded in 96-well tissue culture plates (Corning) at 25,000 cells per well and allowed to adhere and recover overnight at 37 °C in an incubator. Cells were rinsed with PBS (Sigma) and treated with cytokines diluted in 200 μL/well of the medium (DMEM with 0.5% FBS and 1% penicillin/streptomycin) as indicated. In inhibition mode, the agonist concentration used was at the EC80 for chemokine production and the cells were pre-treated with inhibitors for 30 min prior to adding the agonist. After 24 h of treatment, supernatants were collected and IL-8 and CXCL1[28] levels were assessed using a custom immunoassay (Meso Scale Discovery). EC50/IC50 values were estimated from a four-parameter logistic fit using Prism software (GraphPad).
The IL-8 release assays were miniaturized for HTS hit follow-up. Frozen aliquots of HaCaT cells were thawed, added to complete media, mixed, spun down, resuspended in fresh media, and dispensed using the Multidrop384 into black, clear-bottom 384 well plates at a final density of 4000 cells/well. […] Cell viability was assessed using Cell Titer-Glo (Promega) according to the manufacturers’ instructions.

[2] = biological target: T1, human IL-36γ (Homo sapiens, UniProt Q9NZH8); assay: Thermal shift assay, human IL-36γ; type: binding; conditions: 100 μM compound; read-out: increase of melting temperature of human IL-36γ
T1 construct: His6-SUMO-human IL-36γ (18–169); His6-SUMO (N, cleaved yes); made in house; host or cells: E. coli BL21 (DE3)
T1 sequence (Q9NZH8 18-169): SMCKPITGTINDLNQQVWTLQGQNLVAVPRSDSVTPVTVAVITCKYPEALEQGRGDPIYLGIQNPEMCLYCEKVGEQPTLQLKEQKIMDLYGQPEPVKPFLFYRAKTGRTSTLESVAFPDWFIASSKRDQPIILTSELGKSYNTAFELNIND
Experimental: (§2) Thermal shift assays[30] were performed on a Roche LightCycler 480 instrument using Sypro Orange Dye (Invitrogen). Reactions consisted of 0.5–2 µM purified recombinant protein in PBS, pH 7.4, a 1/500 dilution of the stock Sypro Orange reagent, and 100 µM test compounds, resulting in a final DMSO concentration of 1%. The samples were heated from 20 °C to 95 °C at a rate of 0.25 °C per second.

[3] = biological target: T2, human IL-36α (Homo sapiens, UniProt Q9UHA7); assay: Thermal shift assay / affinity, human IL-36α; type: binding; conditions: thermal shift assay at 100 μM (Supplementary Fig. 4)
T2 construct: using recombinant truncated proteins
T2 sequence (Q9UHA7 6-158): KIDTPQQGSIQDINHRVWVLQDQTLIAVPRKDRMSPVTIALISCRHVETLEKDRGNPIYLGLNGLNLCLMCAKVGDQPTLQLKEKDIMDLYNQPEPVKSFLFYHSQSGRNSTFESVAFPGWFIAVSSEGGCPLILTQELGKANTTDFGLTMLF
Experimental: as §2

[4] = system: human IL-36γ induced plasma CXCL1; assay: hIL-36γ induced CXCL1 release in mouse plasma; type: in vivo; conditions: C57BL/6 mice, compounds 10, 30 and 100 mg/kg p.o.; antibody i.p.
From the text: Female C57BL/6 mice (9–10 weeks old, 19–23 g) were purchased from Charles River Laboratories. All animal procedures were approved by AbbVie’s Institutional Animal Care and Use Committee (IACUC) and performed in accordance with the relevant IACUC guidelines and regulations. To examine engagement of human IL-36γ with antagonists under in vivo conditions, a mouse acute CXCL1 release assay was established which was similar to one previously reported. Plasma CXCL1 secretion was induced by subcutaneous injection of 2 μg human IL-36γ (in 100 μL PBS) into C57BL/6 mice. Blood was withdrawn via cardiac puncture 2 h after the challenge with IL-36γ. A-552 and A-553 were dosed at 10, 30 and 100 mg/kg p.o. 45 min before IL-36γ challenge. Anti-IL36R antibodies were dosed i.p. at 24 hours before IL-36γ challenge. Plasma CXCL1 levels were analyzed using MSD V-PLEX kit.

[5] = system: human IL-36γ evoked CXCL1 release from Human HaCaT cells; assay: human IL-36γ evoked CXCL1 release, human HaCaT cells; type: cell-based; conditions: ± S.D.
Experimental: as §1

[6] = biological target: T1, human IL-36γ; assay: Isothermal titration calorimetry; type: binding; conditions: 25 °C, pH 7.5; read-out: KD (ITC)
Experimental: All experiments were carried out on a MicroCal^TM Auto-ITC200 at 25 °C in 50 mM HEPES (pH = 7.5), 150 mM NaCl, 0.5 mM TCEP, 2% DMSO. IL-36γ protein solution was buffer exchanged by gel filtration into the isothermal titration calorimetry (ITC) buffer and diluted to 40 µM. The titrations were conducted using an initial injection of 0.2 µL followed by 19 identical injections of 2 µL of 400 µM compound solution. Thermodynamic parameters were calculated using ∆G = ∆H − T∆S = −RTlnKB, where ∆G, ∆H and ∆S are the changes in free energy, enthalpy and entropy of binding respectively. A single binding site model was employed.

[7] = system: IL-36γ evoked CXCL1 release from Mouse NIH-3T3 cells; assay: IL-36γ evoked CXCL1 release, mouse NIH-3T3 cells; type: cell-based; conditions: for IC50: NIH-3T3 cells, n = 4, read-out: IC50 attenuation of CXCL1 release induced by human IL-36γ
Experimental: as §1

[8] = system: 3D human skin equivalents; assay: IL-36γ induced 3D skin equivalent model; type: cell-based; conditions: 0.3 μg/mL hIL-36γ; 10 μM A-552, 10 μg/mL antibody or IL-36Ra; three days
Experimental: Hematoxylin & eosin (H&E) staining and immunohistochemistry (IHC) were performed using a Leica ST5010 autostainer or Leica Bond RX automated immunostainer. Standardized IHC protocols were used for anti-loricrin staining (Abcam AB85679). Stained tissue slides were digitized for image analysis using a Perkin Elmer P250 whole slide digital pathology slide scanner with 20X objective and extended focus scanning parameters. For quantitative analysis, N = 3 raft samples were analyzed per condition for each stain using whole slide digital analysis software (Indica Labs HALO). Staining was normalized to the length of the raft sample analyzed.
3D skin equivalents (SOR-300-FT-CTR) comprised of human neonatal keratinocytes and fibroblasts were purchased from MatTek, equilibrated for one day in proprietary formulated media (SOR-300-FT-CTR-MM) and then treated as indicated. Treatment groups contained hIL-36γ at 300 ng/mL, 10 μM of A-552, 10 μg/mL anti-IL36R antibody, 10 μg/mL IL-36RA, or 10 μg/mL IgG isotype control either alone or in combination with hIL-36γ. Control skin equivalents were treated with media only. Skin equivalents were treated for three days, with media collected for cytokine release studies at day two and replaced with fresh treatment media. After three days the skin equivalents were either placed in 10% neutral buffered formalin solution (for histology) or frozen (for qRT-PCR).
To measure IL-6, IL-8 and CXCL1 release from 3D skin equivalents diluted sample media collected at day 2 of the treatment (see above) was used in conjunction with V-PLEX multiplex immunoassay for IL-6 and IL-8 and a U-PLEX immunoassay for CXCL1 (Meso Scale Discovery) according to the manufacturers’ protocols.
RNA from frozen 3D skin equivalents was isolated using miRNeasy Mini Kit (Qiagen) per the manufacturers’ instructions. For qRT-PCR determination a CFX384 Real-Time System C1000 Touch Thermocycler was used. […] Each transcript measured was presented as a fold change compared to control using the ∆∆CT method as RNA fold increase where RPLP0 was used as a housekeeping gene.

[9] = biological target: T3, human IL-36R/IL-1RAcP extracellular domain (ECD) knob-in-hole Fc (human, UniProt Q9HB29 20-335; Q9NPH3 21-367); assay: AlphaScreen or HTRF; TR-FRET, competitive mode: unlabeled human IL-36γ or IL-36Ra titrated against 6 nM Alexa 488 human IL-36γ, receptor heterodimer 1.5 μg/mL, 6 nM Tb-anti-His antibody; Ki by the Cheng-Prusoff equation; conditions: both partners purified
T3 construct: human IL-36 receptor subunit (IL-36R), extracellular domain; human IL-1RAcP co-receptor subunit, extracellular domain; Both proteins were engineered with an Fc 'knob-in-hole' to force heterodimerisation; also called hIL-36R/IL-1RAcP ECD knob-in-hole Fc; human IL-36R/IL-1RAcP ECD Fc heterodimer; not shown: His tag (from the nickel column and the Tb-anti-His detection)
T3 sequence (looked up) 1: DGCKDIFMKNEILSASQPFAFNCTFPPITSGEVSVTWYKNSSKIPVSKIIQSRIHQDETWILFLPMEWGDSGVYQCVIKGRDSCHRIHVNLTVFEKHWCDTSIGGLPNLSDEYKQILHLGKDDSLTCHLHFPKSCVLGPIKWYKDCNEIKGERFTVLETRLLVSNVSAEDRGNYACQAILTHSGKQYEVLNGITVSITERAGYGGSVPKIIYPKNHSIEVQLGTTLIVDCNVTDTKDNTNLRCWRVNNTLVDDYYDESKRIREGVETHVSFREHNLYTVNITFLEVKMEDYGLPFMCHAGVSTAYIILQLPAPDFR
T3 sequence (looked up) 2: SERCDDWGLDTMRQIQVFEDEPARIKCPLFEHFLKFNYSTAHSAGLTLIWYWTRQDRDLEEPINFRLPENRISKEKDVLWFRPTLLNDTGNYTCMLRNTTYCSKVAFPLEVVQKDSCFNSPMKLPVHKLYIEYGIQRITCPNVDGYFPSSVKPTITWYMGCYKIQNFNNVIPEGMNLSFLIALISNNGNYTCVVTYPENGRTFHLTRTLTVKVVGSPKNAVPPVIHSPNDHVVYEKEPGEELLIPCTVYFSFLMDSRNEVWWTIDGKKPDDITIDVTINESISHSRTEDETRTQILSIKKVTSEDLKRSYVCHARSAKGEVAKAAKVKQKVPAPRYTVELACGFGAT

Molecule: IL-1β: human IL-1β cytokine used in the selectivity assay
- EC50 [1]: 0.0057 ± 0.0038 nM

- ΔTm at 100 µM [2]: 1.3 °C
- binding / affinity to human IL-36α [3]: do not bind
- Kd [6]: 3000 ± 330 nM
Molecule: COC(c1ccccc1)(c1ccccc1)[C@@H](Oc1nc(C)cc(-c2ccc(C)c(N)c2)n1)C(=O)O [Compound A-553]
- effect on hIL-36γ induced plasma CXCL1 release (in words) [4]: little effect; also recorded: no effect
- Ki [5]: 3700 ± 2300 nM
- Ki ([7]; human IL-36γ evoked CXCL1 release, ± S.D.): 3700 ± 1700 nM

B1: human IL-36Ra: recombinant soluble human IL-36 receptor antagonist (2–155) (protein)
chain: VLSGALCFRMKDSALKVLYLHNNQLLAGGLHAGKVIKGEEISVVPNRWLDASLSPVILGVQGGSQCLSCGVGQEPTLTLEPVNIMELYLGAKESKSFTFYRRDMGLTSSFESAAYPGWFLCTVPEADQPVRLTQLPENGGWNAPITDFYFQQCD
modifications: left off: His6, N-terminal, cleaved | SUMO, N-terminal, cleaved
- effect on hIL-36γ induced changes in morphology, gene expression and cytokine production [8]: fully attenuated
- IC50 [7]: 23 ± 10 nM

B2: mouse IL-36Ra: mouse IL-36 receptor antagonist protein (protein, UniProt Q9QYY1 2-156, looked up)
Interleukin-36 receptor …: MVLSGALCFRMKDSALKVLYLHNNQLLAGGLHAEKVIKGEEISVVPNRALDASLSPVILGVQGGSQCLSCGTEKGPILKLEPVNIMELYLGAKESKSFTFYRRDMGLTSSFESAAYPGWFLCTSPEADQPVRLTQIPEDPAWDAPITDFYFQQCD
- IC50 [7]: 19 ± 9 nM

- Ki [9]: 0.4 nM
B3: human IL-36γ (18–169) (ligand, UniProt Q9NZH8 18-169, looked up)
chain: SMCKPITGTINDLNQQVWTLQGQNLVAVPRSDSVTPVTVAVITCKYPEALEQGRGDPIYLGIQNPEMCLYCEKVGEQPTLQLKEQKIMDLYGQPEPVKPFLFYRAKTGRTSTLESVAFPDWFIASSKRDQPIILTSELGKSYNTAFELNIND
notes: human IL-36γ, residues 18-169; also called hIL-36γ; unlabeled IL-36γ; source: E. coli BL21 (DE3), purified (nickel column, ULP1 cleavage, Superdex 75 gel filtration); not shown: His6, N-terminal, cleaved; SUMO, N-terminal, cleaved

— publication PMC6591177, “Small Molecule IL-36γ Antagonist as a Novel Therapeutic Approach for Plaque Psoriasis” (Scientific Reports, 2019)
